Data on seven compounds can be found in patent US10202390B2, “Heteroaryl substituted aminopyridine compounds” (BRISTOL-MYERS SQUIBB COMPANY, priority 2015, dated 2019).

Series [1] is described as follows: Caco-2 Permeability Assay. Format: in vitro ADME. Particulars: human, test compound 3 μM, 2 hours at 37° C., direction not given. Here is the method:
Caco-2 Permeability Assay Protocol
Thirteen to 27 days prior to assay, Caco-2 cells were seeded onto collagen-coated polycarbonate filter membranes in 24-well transwell plates at a density of 1.45×10^5 cells/cm^2, approximately 4.8×10^4 cells per well. The cells were grown in a culture medium consisting of DMEM supplemented with 10% fetal bovine serum, 10 mM HEPES, 1% nonessential amino acids, 2 mM L-glutamine, 100 U/mL penicillin-G, and 100 μg/mL streptomycin. The culture medium was replaced every 3 days and the cells were maintained at 37° C. in a 95% relative humidity and 5% CO2 atmosphere. The cells were evaluated for tight junction formation just prior to assay. The test compound was solubilized to 10 mM in 100% DMSO and diluted to 3 μM in assay buffer. Permeability studies were initiated by adding 200 μL assay buffer plus/minus compound to the apical transwell compartment and 600 μL assay buffer plus/minus compound to the basolateral compartment of the 24-well transwell low-binding cluster plate. For apical-to-basolateral (A to B) permeability (absorptive direction), buffer containing compound was placed in the apical compartment (donorwells), while buffer alone was placed in the corresponding basolateral compartments (receiverwells). For basolateral-to-apical (B to A) permeability (secretive direction), buffer containing compound was placed in the basolateral compartment (donor wells), while buffer alone was placed in the corresponding apical compartments (receiver wells). Transwells were then incubated for 2 hours at 37° C. in a 95% relative humidity and 5% CO2 atmosphere with gentle agitation. Following incubation, 100 μL was removed from each apical and basolateral compartment and transferred to 96-well low binding plates that had been previously loaded with 100 μL/well of acetonitrile containing 250 nM propranolol, 250 nM diclofenac, and 500 nM tolbutamide as internal standards. The samples were subsequently analyzed by LC-MS/MS to determine concentrations of compound.

Another series concerns the target IRAK4 (Homo sapiens (Human), UniProt Q9NWZ3). Put plainly: IRAK4 Inhibition Assay. Format: biochemical. As to conditions: ATP 500 μM; IRAK4 0.6 nM; 60 min room temperature. Here is the method:
The assays were performed in U-bottom 384-well plates. The final assay volume was 30 μL prepared from 15 μL additions of enzyme and substrates (fluoresceinated peptide and ATP) and test compounds in assay buffer (20 mM HEPES pH 7.2, 10 mM MgCl2, 0.015% Brij 35 and 4 mM DTT). The reaction was initiated by the combination of IRAK4 with substrates and test compounds. The reaction mixture was incubated at room temperature for 60 min. and terminated by adding 45 μL of 35 mM EDTA to each sample. The reaction mixture was analyzed on the Caliper LABCHIP® 3000 (Caliper, Hopkinton, Mass.) by electrophoretic separation of the fluorescent substrate and phosphorylated product. Inhibition data were calculated by comparison to no enzyme control reactions for 100% inhibition and vehicle-only reactions for 0% inhibition. The final concentrations of reagents in the assays are ATP, 500 μM; FL-IPTSPITTTYFFFKKK peptide 1.5 μM; IRAK4, 0.6 nM; and DMSO, 1.6%.

A further series deals with Human whole blood. Description: IRAK4 Whole Blood Assay (TLR2 agonist lipoteichoic acid induced IL-6). Particulars: 10 μg/mL lipoteichoic acid (TLR2 agonist), 5 hours, IL-6 levels. The format is cell-based. Here is the method:
Human whole blood containing the anti-coagulant ACD-A was plated in 384-well plate (25 μL/well) and incubated with compounds for 60 minutes at 37° C. in a 5% CO2 incubator. The blood was stimulated with a TLR2 agonist, 10 μg/mL final concentration of lipoteichoic acid (Invivogen, San Diego, Calif.) in 25 μL RPMI (Gibco) for 5 hours in a 5% CO2 incubator. At the end of the incubation, plates were centrifuged at 2300 rpm for 5 minutes. Supernatants were harvested and analyzed for IL-6 levels by Flow Cytometry beads assay (BD Biosciences, San Jose, Calif.).

Chain of IRAK4 (Q9NWZ3 whole entry): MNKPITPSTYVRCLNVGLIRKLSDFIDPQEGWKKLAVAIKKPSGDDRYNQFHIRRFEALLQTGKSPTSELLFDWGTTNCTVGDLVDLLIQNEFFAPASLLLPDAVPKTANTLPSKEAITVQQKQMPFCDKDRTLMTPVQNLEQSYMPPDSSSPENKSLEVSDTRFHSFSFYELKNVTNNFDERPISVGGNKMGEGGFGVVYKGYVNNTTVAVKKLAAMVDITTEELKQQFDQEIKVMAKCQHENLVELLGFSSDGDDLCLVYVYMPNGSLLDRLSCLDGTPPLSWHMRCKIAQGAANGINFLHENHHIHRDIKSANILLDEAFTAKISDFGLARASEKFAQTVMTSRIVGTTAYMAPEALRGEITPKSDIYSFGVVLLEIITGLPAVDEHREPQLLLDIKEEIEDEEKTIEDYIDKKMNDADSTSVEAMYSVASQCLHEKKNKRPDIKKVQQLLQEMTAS

With `CCCn1cc(-c2cnc(-c3cnc4cc(C#N)cnn34)cc2NC2CC2)nn1` [Example 18, 3-(4-(cyclopropylamino)-5-(1-propyl-1H-1,2,3-triazol-4-yl)pyridin-2-yl)imidazo[1,2-b]pyridazine-7-carbonitrile], the apparent permeability (Papp) at 2 h, 3 μM in series [1] was determined as 22.5 ×10⁻⁶ cm/s. The 50% inhibitory concentration (IC50) at IRAK4 stood at 2 nM. In the series with Human whole blood, this compound registered an EC50 of 180 nM.

In the case of `CC(C)Nc1cc(-c2cnc3cc(C#N)cnn23)ncc1-c1cnn(CCC(C)(C)O)c1` [Example 27, 3-(5-(1-(3-hydroxy-3-methylbutyl)-1H-pyrazol-4-yl)-4-(isopropylamino)pyridin-2-yl) imidazo[1,2-b]pyridazine-7-carbonitrile], the Papp at 2 h, 3 μM in series [1] was 13.6 ×10⁻⁶ cm/s. Moreover, the IC50 at IRAK4 stood at 3 nM. In the series with Human whole blood, the EC50 was found to be 620 nM.

For `CCCc1cn(-c2cnc(-c3cnn4cc(C#N)cnc34)cc2NC(C)C)nn1` [Example 12, 3-(4-(isopropylamino)-5-(4-propyl-1H-1,2,3-triazol-1-yl)pyridin-2-yl)pyrazolo[1,5-a]pyrimidine-6-carbonitrile], the apparent permeability coefficient (Papp) at 2 h, 3 μM in series [1] turned out to be 34.7 ×10⁻⁶ cm/s. Also, the IC50 at IRAK4 turned out to be 9 nM.

Regarding `CCCc1cn(-c2cnc(-c3cnc4cc(C#N)cnn34)cc2NC(C)C)nn1` [Example 15, 3-(4-(isopropylamino)-5-(4-propyl-1H-1,2,3-triazol-1-yl)pyridin-2-yl)imidazo[1,2-b]pyridazine-7-carbonitrile], the Papp at 2 h, 3 μM in series [1] was found to be 22.5 ×10⁻⁶ cm/s. Moreover, the 50% inhibitory concentration (IC50) on IRAK4 worked out at 6 nM. In the series with Human whole blood, a half-maximal effect (EC50) was put at 1780 nM.

`CC(C)(O)CCc1cn(-c2cnc(-c3cnn4cc(C#N)cnc34)cc2N[C@H]2CC[C@H](F)C2)nn1` [Example 25, 3-(4-(((1S,3 S)-3-fluorocyclopentyl)amino)-5-(4-(3-hydroxy-3-methylbutyl)-1H-1,2,3-triazol-1-yl)pyridin-2-yl)pyrazolo[1,5-a]pyrimidine-6-carbonitrile] gave an apparent permeability coefficient (Papp) at 2 h, 3 μM in series [1] of 13.4 ×10⁻⁶ cm/s. In addition, the half-maximal inhibitory concentration (IC50) on IRAK4 came to 5 nM. Also, the response with Human whole blood was half-maximal at 250 nM (EC50).

The compound `CC(C)Nc1cc(-c2cnc3cc(C#N)cnn23)ncc1-n1cc(CCC(C)(C)O)nn1` [Example 22, 3-(5-(4-(3-hydroxy-3-methylbutyl)-1H-1,2,3-triazol-1-yl)-4-(isopropylamino)pyridin-2-yl)imidazo[1,2-b]pyridazine-7-carbonitrile] yielded a Papp at 2 h, 3 μM in series [1] of 29.5 ×10⁻⁶ cm/s. The half-inhibitory concentration (IC50) on IRAK4 is 4 nM. Also, in the series with Human whole blood, the EC50 turned out to be 780 nM.

Compound `CCCc1cn(-c2cnc(-c3cnn4cc(Cl)cnc34)cc2NC(C)C)nn1` [Example 11, 2-(6-chloropyrazolo[1,5-a]pyrimidin-3-yl)-N-isopropyl-5-(4-propyl-1H-1,2,3-triazol-1-yl)pyridin-4-amine] yielded an apparent permeability (Papp) at 2 h, 3 μM in series [1] of 17.9 ×10⁻⁶ cm/s. Further, on IRAK4, the concentration for half-maximal inhibition (IC50) amounted to 8 nM.
